Source: US8597904B2, “Pharmaceutical compositions for the treatment of conditions responsive to proteasome inhibition” (priority 2007, dated 2013)

Key:
[1] = target: T1, human erythrocyte 20S proteasomes, caspase-like activity (Homo sapiens, UniProt P28072); test: 20S Proteasome Assay Kit, Z-LLE-AMC substrate; type: biochemical
T1 construct: which contains human erythrocyte 20S proteasomes; purchased BIOMOL International AK-740; host or cells: human erythrocytes
Method: The eukaryotic 20S proteasome contains three catalytic subunits (β1, β2, and (β5) conferring caspase-like, trypsin-like and chymotrypsin-like proteolytic activities, respectively (Borissenko and Groll. 2007. Chem. Rev. 107:687-717, which is incorporated herein by reference in its entirety). Syringolin A was tested as a proteasome inhibitor using the 20S Proteasome Assay Kit for Drug Discovery AK-740 (BIOMOL® International, Plymouth Meeting, PA, USA), which contains human erythrocyte 20S proteasomes, in a 96-well microtiter plate. The fluorogenic substrates Suc-LLVY-AMC, Boc-LRR-AMC, and Z-LLE-AMC (BIOMOL® International) were used to monitor chymotrypsin-like, trypsin-like, and caspase-like activities, respectively. […] The release of free AMC (7-amino-4-methylcoumarin) at 37° C. was monitored with an MWGt Sirius HT fluorescence microplate reader (BIO-TEK® Instruments) equipped with a 360 nm excitation and a 460 nm emission filter. Proteolytic activities were measured as the increase in relative fluorescence units (RFU) over time (FIG. 7A-C). […] The initial velocities (vi) were determined from the time derivative of these curves and plotted versus the corresponding inhibitor concentration ([I]). […] The rate of covalent inhibition (kassociation), which equals kobs/[I] was calculated over the range of inhibitor concentrations given in parentheses in FIG. 7D. […]

ubiquitinated proteins = test: immunoblot of total ubiquitinated proteins in SK-N-SH cells; type: cell-based, human; settings: for increase of ubiquitinated proteins: 24 hours of treatment
Method: As inhibition of the proteasome is expected to result in increased levels of ubiquitinated proteins (Meng, et al. 1999. Proc. Natl. Acad. Sci. U.S.A. 96:10403-10408, which is incorporated herein by reference in its entirety), the effect of syringolin A on total ubiquitinated protein accumulation was analyzed by immunoblot analysis. To do so, SK-N-SH cells were seeded in 6-well cell culture plates at a concentration of 3.8×10^5 cells per ml (1.98 ml per well). After 24 hours, 20 μl of syringolin A (final concentration 25 μM) or cell culture medium (control, C) was added. For time-course experiments, cell treatments were staggered in order to process all samples at the same time after 24 hours. Cell lysates were prepared as previously reported (Wallick, et al. 2005. Oncogene 24:5606-5618, which is incorporated herein by reference in its entirety). Sodium dodecyl sulfate-polyacrylamide gel electrophoresis (SDS-PAGE), electro transfer to PVDF Immobilon-P membranes (Millipore) and antibody incubations were performed according to standard procedures. The primary antibodies used were rabbit whole serum ubiquitin (1:150) (U5379; Sigma), mouse monoclonal tumor suppressor protein p53 (1:250) (se-126; Santa Cruz Biotechnology), and rabbit monoclonal α-tubulin (1:1,500) (11H10; Cell Signaling Technology). Horse radish peroxidase (HRP)-conjugated anti-mouse or anti-rabbit antibodies (1:5,000) were used as secondary antibodies. Membranes were developed using the ECL Plus kit following the manufacturer's protocol (Amersham Biosciences) and exposed to Blue Lite Autorad Film (ISC BioExpress). Membranes were stripped with ECL stripping buffer (62.5 mM Tris-HCL, pH 6.7, 2% SDS, 100 mM β-mercaptoethanol) for 20 min at 55° C. and sequentially re-probed with the next antibody.
To further examine the inhibitory effect, whole cell lysates of GlbA-treated or untreated control cells were analyzed by Western blot and ubiquitinated proteins detected at endogenous levels.

| Compound | inhibition of caspase-like activity ([1]; concentrations tested up to 20 μM) | increase of ubiquitinated proteins (ubiquitinated proteins) | lower concentration of GlbA inducing effects comparable to SylA (ubiquitinated proteins; ubiquitinated proteins) | inhibition of caspase-like activity ([1]; 37° C., 100 μM Z-LLE-AMC) | accumulation of ubiquitinated proteins (ubiquitinated proteins; 25 μM, time-course) |
| --- | --- | --- | --- | --- | --- |
| CCCCCCC/C=C/C=C/C(=O)N[C@H](C(=O)N[C@H]1C[C@@H](O)CCNC(=O)/C=C/[C@H](C)NC1=O)[C@@H](C)O [glidobactin A] | not inhibited | 3 fold | 100 fold | – | – |
| CC(C)[C@H](NC(=O)N[C@H](C(=O)N[C@H]1/C=C/CCNC(=O)/C=C/[C@H](C(C)C)NC1=O)C(C)C)C(=O)O [syringolin A] | – | 3 fold | – | inhibited | time-dependent accumulation of ubiquitinated proteins |
